Experimental findings from patent US9944721B2, “Polysialic acid and use for treatment of neurodegenerative and neuroinflammatory diseases” (RHEINISCHE FRIEDRICH-WILHELMS UNIVERSITÄT BONN, priority 2013, dated 2018) are described below.

The subject of this experiment is co-culture of human iPSdM1 microglia and iPS cell-derived neurons with amyloid-β1-42. Briefly: Microglia-neuron co-culture with fibrillary amyloid-β1-42, 48 hours (neurite length). In kind it is cell-based. As to conditions: 48 hours co-culture with microglia and 1 μM fibrillary amyloid-β1-42; without PSA-20 0.64+/−0.03; FIG. 4G. On the procedure: Human induced pluripotent stem cell derived microglia (iPSdM) were obtained from iPS cells. iPSdM-1 line was used in this study generated from the iLB-C-35m-r1 clone (Bonn). iPSdM-1 (here named microglia or microglial cells) were culture in N2-medium consisting of DMEM/F12 culture medium (Gibco) supplemented with 1% N2 (Invitrogen), 0.48 mM L-glutamine (Gibco) and 100 μg/ml penicillin/streptomycin (Gibco). Cells were cultured with high density and split 1:5. After splitting, cells recovered and attached again to the new dishes.
Human induced pluripotent stem (iPS) cells (Foreskin-1, WiCell) were used for generation of primitive neural stem cell (pNSC) and their differentiation into neurons according to a modified protocol, which was used to obtain primitive neural precursors from human embryonic stem cells. Briefly, iPS cells were cultured on feeder cells to form small colonies. […]
Cells were fixed for 15 minutes with 4% paraformaldehyde (PFA), blocked and permeabilized for 60 minutes with a solution that contained bovine serum albumin (10% BSA) and normal goat serum (5% nGS) and 0.1% TritonX-100. […] Ten images were randomly collected from each experimental setup by confocal laser scanning microscopy (Fluoview 1000, Olympus) and total lengths of neuronal branches from β-tubulin-III stained neurites was determined done by the NIH ImageJ/NeuronJ software.

On to poly-(α(2→8)Neu5Ac)n [PSA-20], for which the relative neurite length was 0.82+/−0.03.
